The values that follow come from PubChem BioAssay (NCI).

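Results reflect a 48-hour exposure of cells in 96-well plates to compound at five concentrations. TGI: total growth inhibition.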

Experiment in all cases: NCI anticancer screen, dose series, 48 h
In assay [1] the test system is UACC-62 melanoma.
Assay [2] concerns SF-295 CNS.
Assay [3] deals with HS 578T breast.
For assay [4], the system named is DU-145 prostate.
Assay [5] has as its system KM12 colon.
For assay [6], the system named is SF-268 CNS.
For assay [7], the system named is SK-MEL-5 melanoma.
Assay [8] has as its system A549 NSCLC.
The subject of assay [9] is NCI-H23 lung.
The subject of assay [10] is U251 CNS.
Assay [11] relates to NCI-H522 lung.
Assay [12] has as its system OVCAR-8 ovarian.
Assay [13] concerns SNB-75 CNS.
For assay [14], the system named is SN12C renal.
The subject of assay [15] is HT29 colon.
The subject of assay [16] is HCC-2998 colon.
Assay [17] relates to HCT-15 colon.
The subject of assay [18] is SK-OV-3 ovarian.
Assay [19] concerns NCI/ADR-RES ovarian.

As for `c1cc2c(cc1NC1=NCCO1)CCCC2`, the TGI in [1] worked out at 16.5 µM; in [2], 25.6 µM; in assay [3], 23 µM; in assay [4] it was 24.6 µM; in [5] it was 10.5 µM; in [6], 25 µM. For the same molecule, the TGI came out at 9.17 µM in assay [7]; 39.9 µM in assay [8]; 16 µM in assay [9]; 24.8 µM in assay [10]; 18 µM in assay [11]; 12.5 µM in assay [12]. In addition, the TGI in [13] was found to be 35.3 µM; in [14], 36.6 µM; in [15], 7.28 µM; in assay [16] it was 9.8 µM; in assay [17], 22.4 µM; in assay [18] it was 27.1 µM. Further, the TGI in assay [19] worked out at 8.84 µM.
Take `O=C1C(=Cc2cccc(Cl)c2)N=C(c2ccccc2)N1n1c(-c2ccccc2)nc2ccccc2c1=O`: the TGI in assay [1] was 96.2 µM; in [2], over 100 µM; in [3], over 100 µM; in assay [4], over 100 µM; in assay [5], over 100 µM; in [6], over 100 µM. Further, the TGI in [7] is over 100 µM; in assay [8] it was over 100 µM; in assay [9], 68.6 µM; in assay [10], over 100 µM; in assay [11] it was 51.7 µM; in assay [12] it was over 100 µM. Besides, the TGI in assay [13], in [14], in [15], in assay [16], in assay [17] and in assay [18] was over 100 µM in each case. Besides, the TGI in assay [19] was over 100 µM.
Take `CCCCC1CCCCCCc2[nH]c(/C=C3\N=C(c4ccc[nH]4)C=C3OC)cc21` (stereo unspecified): the TGI in [1] is under 0.0177 µM; in [2] it was 1.17 µM; in assay [3], 1.62 µM; in assay [4], 3.96 µM; in assay [5], 4.91 µM; in [6] it was 2.13 µM. The TGI in assay [7] turned out to be 0.107 µM; in assay [8] it was 0.0354 µM; in assay [9], 1.28 µM; in [10], 0.49 µM; in [11] it was 1.38 µM; in [12], 1.33 µM. In addition, the TGI in [13] amounted to 0.638 µM; in [14], 1.32 µM; in assay [15], 1.11 µM; in assay [16] it was 1.02 µM; in [17] it was 1.9 µM; in assay [18] it was 7.37 µM. In assay [19], this molecule yielded a TGI of 0.806 µM.
`Cc1ccc2c(=O)cc(-c3cc4ccccc4s3)[nH]c2n1`: the TGI in assay [1], in assay [2], in assay [3], in assay [4], in assay [5] and in [6] was over 100 µM in each case. The TGI in [7], in [8], in [9], in [10], in assay [11] and in assay [12] was over 100 µM each time. Moreover, the TGI was 67.6 µM in [13]; over 100 µM in assay [14]; over 100 µM in assay [15]; over 100 µM in assay [16]; over 100 µM in assay [17]; over 100 µM in assay [18]. In addition, in [19], the TGI is over 100 µM.
